Measurements published in patent US20100216779A1 (GLAXOSMITHKLINE LLC, priority 2007, published 2010).

Tests used:
Type in all cases: cell-based
[1] = tested on: COLO205 (colon); experiment: Inhibition of cell proliferation, CellTiter-Glo, COLO205; settings: Homo sapiens, COLO 205, 72 h
Procedure: C. Inhibition of Cell Proliferation
Cell proliferation was measured by either CellTiter-Glo (measures cellular ATP level as a surrogate for total cell number) or by InCell analyzer (counts number of nuclei as a measure of cell number). For CellTiter-Glo assay, exponentially growing cell lines of different tumor origins, cultured in appropriate media containing 10% fetal bovine serum at 37° C. in a 5% CO2 incubator, were plated at low density (less than 2000 cells/well) in 96-well plates. […] Several wells were left untreated as a control. Seventy two hours post-treatment, cell numbers were determined using 50-100 ul per well of CellTiter-Glo (Promega #G7573). Plates were incubated at 37° C. for 30 minutes and the chemiluminescent signal was read on the Victor V or Envison 2100 reader. […]

[2] = target: T1, IR (NIH-3T3 cells over expressing human IGF-1R or IR) (Homo sapiens, UniProt P06213); experiment: IR cellular autophosphorylation (DELFIA); settings: NIH-3T3 cells over expressing IR, insulin stimulated
T1 construct: expressed in transfected cells; host or cells: NIH-3T3 (mouse fibroblasts)
T1 sequence (P06213 28-1382): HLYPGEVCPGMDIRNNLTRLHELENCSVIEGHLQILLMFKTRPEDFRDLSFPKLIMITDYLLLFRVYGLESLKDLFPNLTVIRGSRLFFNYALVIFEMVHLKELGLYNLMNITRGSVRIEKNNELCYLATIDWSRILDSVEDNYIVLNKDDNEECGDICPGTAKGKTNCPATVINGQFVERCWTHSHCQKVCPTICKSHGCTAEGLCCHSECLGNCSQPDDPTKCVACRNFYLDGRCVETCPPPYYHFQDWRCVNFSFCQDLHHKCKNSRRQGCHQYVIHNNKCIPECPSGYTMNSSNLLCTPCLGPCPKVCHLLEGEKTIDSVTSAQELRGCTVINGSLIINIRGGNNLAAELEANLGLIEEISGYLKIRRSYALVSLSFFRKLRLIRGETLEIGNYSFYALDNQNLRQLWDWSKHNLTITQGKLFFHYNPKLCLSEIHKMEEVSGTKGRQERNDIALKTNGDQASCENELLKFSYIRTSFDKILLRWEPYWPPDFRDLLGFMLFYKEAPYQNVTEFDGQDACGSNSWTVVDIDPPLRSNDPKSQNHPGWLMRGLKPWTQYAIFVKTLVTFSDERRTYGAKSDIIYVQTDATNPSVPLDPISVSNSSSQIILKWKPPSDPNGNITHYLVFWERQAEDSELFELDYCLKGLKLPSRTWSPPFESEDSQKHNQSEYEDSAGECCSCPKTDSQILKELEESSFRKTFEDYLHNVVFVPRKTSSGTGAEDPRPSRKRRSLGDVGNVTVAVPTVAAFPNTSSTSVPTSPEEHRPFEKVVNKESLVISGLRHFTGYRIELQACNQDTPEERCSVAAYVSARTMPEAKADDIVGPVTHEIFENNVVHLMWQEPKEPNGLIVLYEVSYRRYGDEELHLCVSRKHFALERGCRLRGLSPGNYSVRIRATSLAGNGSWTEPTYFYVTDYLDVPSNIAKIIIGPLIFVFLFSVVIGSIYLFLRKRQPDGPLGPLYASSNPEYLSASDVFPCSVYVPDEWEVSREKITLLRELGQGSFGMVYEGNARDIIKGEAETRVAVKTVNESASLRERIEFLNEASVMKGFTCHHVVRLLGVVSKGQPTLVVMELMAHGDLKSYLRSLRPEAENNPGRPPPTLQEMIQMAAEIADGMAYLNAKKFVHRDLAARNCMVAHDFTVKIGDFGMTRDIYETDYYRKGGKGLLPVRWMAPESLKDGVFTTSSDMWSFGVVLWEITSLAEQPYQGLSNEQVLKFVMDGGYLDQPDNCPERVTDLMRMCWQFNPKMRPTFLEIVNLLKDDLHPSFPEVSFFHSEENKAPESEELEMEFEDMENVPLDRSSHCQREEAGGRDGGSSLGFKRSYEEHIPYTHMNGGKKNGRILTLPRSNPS
Procedure: (§1) D. IGF-1R and IR Cellular Autophosphorylation (DELFIA)
(§2) NIH-3T3 cells over expressing human IGF-1R or IR were plated in 96-well plates (10,000 cells/well) in culture media containing 10% fetal bovine serum and incubated at 37° C. in a 5% CO2 incubator. Twenty four hours post-plating, cells were treated with different concentrations of test compounds ranging from 30 uM to 1.5 nM. Two hours after compound addition, cells were stimulated with either human IGF-1 (30 ng/mL) or insulin (3 ug/mL) for 15 minutes. Cell lysates are analyzed for phosphorylated receptors using dissociation enhanced lanthanide fluor-immuno assay (DELFIA) with anti-IGF-1R (MAB391, R&D Systems, Minneapolis, Minn.) or anti-IR[…](sc-711, Santa Cruz Biotechnology, Santa Cruz, Calif.) capture antibody and europium-labeled anti-pTyr antibody (Eu-N1 PT66, Perkin Elmer, Waltham, Mass.) for detection. The fluorescence signal for cells treated with compounds was expressed as percent relative to 100% stimulation (IGF-1 or insulin stimulated signal). […]

[3] = target: T2, human IGF-1R (NIH-3T3 cells over expressing human IGF-1R) (Homo sapiens, UniProt P08069); experiment: IGF-1R cellular autophosphorylation (DELFIA); settings: IGF-1 stimulated
T2 construct: expressed in transfected cells; host or cells: NIH-3T3 (mouse fibroblasts)
T2 sequence (P08069 31-1367): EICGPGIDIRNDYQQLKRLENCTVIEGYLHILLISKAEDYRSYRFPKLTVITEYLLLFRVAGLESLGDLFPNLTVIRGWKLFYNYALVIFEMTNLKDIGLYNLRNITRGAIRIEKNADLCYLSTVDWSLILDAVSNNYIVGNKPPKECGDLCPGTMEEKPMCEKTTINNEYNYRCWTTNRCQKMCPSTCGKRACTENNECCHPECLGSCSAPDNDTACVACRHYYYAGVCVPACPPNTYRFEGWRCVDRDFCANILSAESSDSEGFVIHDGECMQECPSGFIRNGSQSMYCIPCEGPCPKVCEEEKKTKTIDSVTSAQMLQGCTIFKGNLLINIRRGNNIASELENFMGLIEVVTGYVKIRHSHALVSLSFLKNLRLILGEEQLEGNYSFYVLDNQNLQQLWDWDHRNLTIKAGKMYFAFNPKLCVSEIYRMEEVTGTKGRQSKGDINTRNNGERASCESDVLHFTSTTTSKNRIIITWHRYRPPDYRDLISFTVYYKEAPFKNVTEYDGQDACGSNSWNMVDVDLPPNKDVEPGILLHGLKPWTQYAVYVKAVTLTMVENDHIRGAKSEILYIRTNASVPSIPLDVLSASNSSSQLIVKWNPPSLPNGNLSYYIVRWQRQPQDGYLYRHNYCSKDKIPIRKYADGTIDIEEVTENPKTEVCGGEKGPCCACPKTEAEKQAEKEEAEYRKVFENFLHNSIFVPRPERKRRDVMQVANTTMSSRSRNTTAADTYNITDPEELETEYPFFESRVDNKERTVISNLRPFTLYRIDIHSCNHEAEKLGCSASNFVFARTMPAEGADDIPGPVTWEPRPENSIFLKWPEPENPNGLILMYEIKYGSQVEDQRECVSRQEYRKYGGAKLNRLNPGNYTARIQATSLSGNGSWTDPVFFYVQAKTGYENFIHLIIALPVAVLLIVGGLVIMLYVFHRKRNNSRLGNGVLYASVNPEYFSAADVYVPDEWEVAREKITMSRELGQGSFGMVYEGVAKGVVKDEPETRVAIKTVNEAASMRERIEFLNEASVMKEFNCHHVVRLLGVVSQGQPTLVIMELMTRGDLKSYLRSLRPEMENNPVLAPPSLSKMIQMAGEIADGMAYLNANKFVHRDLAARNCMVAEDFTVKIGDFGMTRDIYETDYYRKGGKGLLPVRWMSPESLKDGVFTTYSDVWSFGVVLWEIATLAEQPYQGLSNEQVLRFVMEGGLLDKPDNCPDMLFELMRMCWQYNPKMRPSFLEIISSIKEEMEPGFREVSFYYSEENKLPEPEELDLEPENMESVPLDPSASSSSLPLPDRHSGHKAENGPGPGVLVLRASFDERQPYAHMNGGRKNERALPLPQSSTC
Procedure: as §1, §2

Row | SMILES | IC50 [1] [nM] | IC50 [2] [nM] | IC50 [3] [nM]
1 | COc1ccc(-c2nc3cc(C)ccn3c2-c2ccnc(Nc3cccc(OCCN(C)C)c3)n2)cc1C(=O)Nc1c(F)cccc1F [Example 2, N-(2,6-difluorophenyl)-5-(3-{2-[(3-{[2-(dimethylamino)ethyl]oxy}phenyl)amino]-4-pyrimidinyl}-7-methylimidazo[1,2-a]pyridin-2-yl)-2-(methyloxy)benzamide] | 250 to 1000 | > 500 | > 500
2 | Cc1cc(OC2CCNCC2)ccc1Nc1nccc(-c2c(-c3cccc(C(=O)Nc4c(F)cccc4F)c3)nc3ccccn23)n1 [Example 6, N-(2,6-difluorophenyl)-3-[3-(2-{[2-methyl-4-(4-piperidinyloxy)phenyl]amino}-4-pyrimidinyl)imidazo[1,2-a]pyridin-2-yl]benzamide] |  | > 500 | 100 to 500
3 | COc1cc(-c2nnc(CN(C)C)o2)ccc1Nc1nccc(-c2c(-c3cccc(C(=O)Nc4c(F)cccc4F)c3)nc3ccccn23)n1 [Example 27, N-(2,6-difluorophenyl)-3-[3-(2-{[4-{5-[(dimethylamino)methyl]-1,3,4-oxadiazol-2-yl}-2-(methyloxy)phenyl]amino}-4-pyrimidinyl)imidazo[1,2-a]pyridin-2-yl]benzamide] | > 1000 | > 500 | 
4 | COc1cc(N2CCC(N3CCN(CCF)CC3)CC2)c(Cl)cc1Nc1nccc(-c2c(-c3cccc(C(=O)Nc4c(F)cccc4F)c3)nc3ccccn23)n1 [Example 112, 3-[3-(2-{[5-chloro-4-{4-[4-(2-fluoroethyl)-1-piperazinyl]-1-piperidinyl}-2-(methyloxy)phenyl]amino}-4-pyrimidinyl)imidazo[1,2-a]pyridin-2-yl]-N-(2,6-difluorophenyl)benzamide] |  | < 100 | < 100
5 | COc1cc(CCN2CCCCC2)c(F)cc1Nc1nccc(-c2c(-c3ccc(OC)c(C(=O)Nc4c(F)cccc4F)c3)nc3ccccn23)n1 [Example 127, N-(2,6-difluorophenyl)-5-{3-[2-({5-fluoro-2-(methyloxy)-4-[2-(1-piperidinyl)ethyl]phenyl}-amino)-4-pyrimidinyl}imidazo[1,2-a]pyridin-2-yl}-2-(methyloxy)benzamide] | 250 to 1000 |  | < 100
6 | COc1cc(CCN2CCCCC2)c(F)cc1Nc1nccc(-c2c(-c3cccc(C(=O)Nc4c(F)cccc4F)c3)nc3ccccn23)n1 [Example 128, N-(2,6-difluorophenyl)-3-{3-[2-({5-fluoro-2-(methyloxy)-4-[2-(1-piperidinyl)ethyl]phenyl}-amino)-4-pyrimidinyl]imidazo[1,2-a]pyridin-2-yl}benzamide] | 250 to 1000 |  | 100 to 500
7 | COc1cc(CCN2CCCCC2)c(F)cc1Nc1nccc(-c2c(-c3cccc(C(=O)Nc4c(F)cc(F)cc4F)c3)nc3ccccn23)n1 [Example 129, 3-{3-[2-({5-fluoro-2-(methyloxy)-4-[2-(1-piperidinyl)ethyl]phenyl}amino)-4-pyrimidinyl]imidazo[1,2-a]pyridin-2-yl}-N-(2,4,6-trifluorophenyl)benzamide] | 250 to 1000 |  | 100 to 500
8 | COc1cc(CCN2CCOCC2)c(F)cc1Nc1nccc(-c2c(-c3ccc(OC)c(C(=O)Nc4c(F)cccc4F)c3)nc3ccccn23)n1 [Example 130, N-(2,6-difluorophenyl)-5-{3-[2-({5-fluoro-2-(methyloxy)-4-[2-(4-morpholinyl)ethyl]phenyl}-amino)-4-pyrimidinyl]imidazo[1,2-a]pyridin-2-yl}-2-(methyloxy)benzamide] | 250 to 1000 |  | 100 to 500
9 | COc1cc(N2CCN(C(C)C)CC2)ccc1Nc1nccc(-c2c(-c3cccc(C(=O)Nc4c(F)cccc4F)c3)nc3ccccn23)n1 [Example 175, N-(2,6-difluorophenyl)-3-[3-(2-{[4-[4-(1-methylethyl)-1-piperazinyl]-2-(methyloxy)phenyl]amino}-4-pyrimidinyl)imidazo[1,2-a]pyridin-2-yl]benzamide] | 250 to 1000 |  | < 100
10 | CCc1cc(Nc2nccc(-c3c(-c4ccc(OC)c(C(=O)Nc5c(F)cccc5F)c4)nc4ccccn34)n2)c(OC)cc1N1CCN(CCS(C)(=O)=O)CC1 [Example 187, N-(2,6-difluorophenyl)-5-(3-{2-[(5-ethyl-2-(methyloxy)-4-{4-[2-(methylsulfonyl)ethyl]-1-piperazinyl}phenyl)amino]-4-pyrimidinyl}imidazo[1,2-a]pyridin-2-yl)-2-(methyloxy)benzamide] |  | < 100 | < 100

Continued, values first:

Row | IC50 [1] [nM] | IC50 [2] [nM] | IC50 [3] [nM] | SMILES
11 | < 250 | 100 to 500 | < 100 | COc1ccc(-c2nc3ccccn3c2-c2ccnc(Nc3cccc(OCCN(C)C)c3)n2)cc1C(=O)Nc1c(F)cccc1F [Example 1, N-(2,6-difluorophenyl)-5-(3-{2-[(3-{[2-(dimethylamino)ethyl]oxy}phenyl)-amino]-4-pyrimidinyl}imidazo[1,2-a]pyridin-2-yl)-2-(methyloxy)benzamide]
12 | 250 to 1000 | < 100 | < 100 | COc1cc(N2CCC(N3CCCCC3)CC2)ccc1Nc1nccc(-c2c(-c3ccc(OC)c(C(=O)Nc4c(F)cccc4F)c3)nc3cc(C)ccn23)n1 [Example 4, 5-[3-(2-{[4-(1,4′-bipiperidin-1′-yl)-2-(methyloxy)phenyl]amino}-4-pyrimidinyl)-7-methylimidazo[1,2-a]pyridin-2-yl]-N-(2,6-difluorophenyl)-2-(methyloxy)benzamide]
13 |  | > 500 | < 100 | Cc1cc(OC2CCN(C)CC2)ccc1Nc1nccc(-c2c(-c3cccc(C(=O)Nc4c(F)cccc4F)c3)nc3ccccn23)n1 [Example 7, N-(2,6-difluorophenyl)-3-{3-[2-({2-methyl-4-[(1-methyl-4-piperidinyl)oxy]phenyl}amino)-4-pyrimidinyl]imidazo[1,2-a]pyridin-2-yl}benzamide]
14 |  | 100 to 500 | < 100 | Cc1cc(OC2CCN(CCS(C)(=O)=O)CC2)ccc1Nc1nccc(-c2c(-c3cccc(C(=O)Nc4c(F)cccc4F)c3)nc3ccccn23)n1 [Example 8, N-(2,6-difluorophenyl)-3-[3-(2-{[2-methyl-4-({1-[2-(methylsulfonyl)ethyl]-4-piperidinyl}oxy)phenyl]amino}-4-pyrimidinyl)imidazo[1,2-a]pyridin-2-yl]benzamide]
15 | < 250 |  | < 100 | COc1cc(N2CCC(N3CCC[C@H](O)C3)CC2)ccc1Nc1nccc(-c2c(-c3ccc(OC)c(C(=O)Nc4c(F)cccc4F)c3)nc3ccccn23)n1 [Example 84, N-(2,6-difluorophenyl)-5-[3-(2-{[4-[(3S)-3-hydroxy-1,4′-bipiperidin-1′-yl]-2-(methyloxy)-phenyl]amino}-4-pyrimidinyl)imidazo[1,2-a]pyridin-2-yl]-2-(methyloxy)benzamide]
16 |  | < 100 | < 100 | COc1cc(N2CCC(N3CCCCC3)CC2)c(C)cc1Nc1nccc(-c2c(-c3cccc(C(=O)Nc4c(F)cccc4F)c3)nc3ccccn23)n1 [Example 108, 3-[3-(2-{[4-(1,4′-bipiperidin-1′-yl)-5-methyl-2-(methyloxy)phenyl]amino]-4-pyrimidinyl)imidazo[1,2-a]pyridin-2-yl]-N-(2,6-difluorophenyl)benzamide]
17 | 250 to 1000 |  | < 100 | COc1cc(N2CCC(OC)CC2)ccc1Nc1nccc(-c2c(-c3cccc(C(=O)Nc4c(F)cccc4F)c3)nc3ccccn23)n1 [Example 125, N-(2,6-difluorophenyl)-3-{3-[2-({2-(methyloxy)-4-[4-(methyloxy)-1-piperidinyl]phenyl}-amino)-4-pyrimidinyl}imidazo[1,2-a]pyridin-2-yl]benzamide]
18 | 250 to 1000 |  | < 100 | COc1cc(N2CCC(OC)CC2)ccc1Nc1nccc(-c2c(-c3ccc(OC)c(C(=O)Nc4c(F)cccc4F)c3)nc3ccccn23)n1 [Example 126, N-(2,6-difluorophenyl)-2-(methyloxy)-5-{3-[2-({2-(methyloxy)-4-[4-(methyloxy)-1-piperidinyl}phenyl}amino)-4-pyrimidinyl]imidazo[1,2-a]pyridin-2-yl]benzamide]
19 | < 250 |  | < 100 | COc1cc(CCN2CCN(C)CC2)ccc1Nc1nccc(-c2c(-c3ccc(OC)c(C(=O)Nc4c(F)cccc4F)c3)nc3ccccn23)n1 [Example 131, N-(2,6-difluorophenyl)-2-(methyloxy)-5-{3-[2-({2-(methyloxy)-4-[2-(4-methyl-1-piperazinyl)ethyl]phenyl}amino)-4-pyrimidinyl]imidazo[1,2-a]pyridin-2-yl}benzamide]
20 | 250 to 1000 |  | < 100 | COc1cc(CCN2CCN(C)CC2)ccc1Nc1nccc(-c2c(-c3cccc(C(=O)Nc4c(F)cccc4F)c3)nc3ccccn23)n1 [Example 132, N-(2,6-difluorophenyl)-3-{3-[2-({2-(methyloxy)-4-[2-(4-methyl-1-piperazinyl)ethyl]phenyl}amino)-4-pyrimidinyl]imidazo[1,2-a]pyridin-2-yl}benzamide]
